The values that follow come from patent US20240408093A1, “HETEROBIFUNCTIONAL COMPOUNDS AND THEIR USE IN TREATING DISEASE” (HALDA THERAPEUTICS OPCO, INC., priority 2022, published 2024).

Assay [1] has as its target T1, EGFR T790M, L858R (amino acids 669-1011) (Homo sapiens, UniProt P00533, L858R/T790M).
T1 construct: purchased Eurofins Discovery (KdELECT); host or cells: mammalian cells (HEK-293)
Kind of assay: KdELECT binding assay, EGFR T790M, L858R. The method, then:
(§1) Exemplary compounds were tested for ability to bind to EGFR WT (amino acids 669-1011, Accession Number NP_005219.2) or EGFR T790M, L858R (amino acids 669-1011 Accession Number NP_005219.2) expressed from bacteria or mammalian cells, respectively. Compounds were tested using the KdELECT assay at Eurofins Discovery.
(§2) Kinase-tagged T7 phage strains were prepared in an E. coli host derived from the BL21 strain. E. coli were grown to log-phase and infected with T7 phage and incubated with shaking at 32° C. until lysis. The lysates were centrifuged and filtered to remove cell debris. The remaining kinases were produced in HEK-293 cells and subsequently tagged with DNA for qPCR detection. Streptavidin-coated magnetic beads were treated with biotinylated small molecule ligands for 30 minutes at room temperature to generate affinity resins for kinase assays. The liganded beads were blocked with excess biotin and washed with blocking buffer (SeaBlock (Pierce), 1% BSA, 0.05% Tween 20, 1 mM DTT) to remove unbound ligand and to reduce non-specific binding. Binding reactions were assembled by combining kinases, liganded affinity beads, and test compounds in 1x binding buffer (20% SeaBlock, 0.17× PBS, 0.05% Tween 20, 6 mM DTT). Test compounds were prepared as 111× stocks in 100% DMSO. Kd values were determined using an 11-point 3-fold compound dilution series with three DMSO control points. All compounds for Kd measurements are distributed by acoustic transfer (non-contact dispensing) in 100% DMSO. The compounds were then diluted directly into the assays such that the final concentration of DMSO was 0.9%. All reactions performed in polypropylene 384-well plate. Each was a final volume of 0.02 mL. The assay plates were incubated at room temperature with shaking for 1 hour and the affinity beads were washed with wash buffer (1× PBS, 0.05% Tween 20). The beads were then re-suspended in elution buffer (1× PBS, 0.05% Tween 20, 0.5 μM nonbiotinylated affinity ligand) and incubated at room temperature with shaking for 30 minutes. The kinase concentration in the eluates was measured by qPCR.

Assay [2] has as its target T2, GSPT1 (Homo sapiens, UniProt P15170+Q96SW2).
T2 construct: host or cells: HEK293 LgBiT / GSPT1 HiBiT CRISPR knock-in
The experiment in a line: GSPT1 HiBiT degradation assay. The class given is cell-based. As to conditions: HEK293 LgBiT GSPT1 HiBiT cells, 6 hours. The method, boiled down:
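HEK293 CRISPR knock-in cells expressing LgBiT and GSPT1-HiBiT were seeded at 1000 cells/well and, after 18-24 h, treated with titrated compound plus endurazine (0.5× final) at 37 °C. Luminescence read after 6 h; loss of signal reflects GSPT1 degradation, giving DC50.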

Assay [3] addresses T3, EGFR WT (amino acids 669-1011) (Homo sapiens, UniProt P00533).
T3 construct: purchased Eurofins Discovery (KdELECT); host or cells: bacteria (E. coli BL21-derived, T7 phage)
The experiment in a line: KdELECT binding assay, EGFR WT. The method, then: as §1, §2

Assay [4] addresses KRAS G12C (Homo sapiens, UniProt P01116, G12C). The experiment in a line: KRAS G12C cellular target engagement assay (SW1573 cells). The class given is cell-based. Also noted: host or cells: SW1573. To be noted: 17 hours, read-out: TE50 (the source's name). The method, then:
SW1573 cells (ATCC CRL-2170) were cultured in RPMI 1640 (Gibco A1049101), supplemented with 10% Heat-inactivated FBS (Gibco Cat. #A38400-01) and 1% Penicillin/Streptomycin (Gibco Cat. #15140-122) in an incubator set at 37° C. and 5% CO2. Cells were seeded at 100,000 cells/ml in 1 ml of complete media in a 24-well, tissue culture-treated plate (Falcon 353226) and incubated overnight. Cells were treated with increasing concentrations of compound and let incubate at 37C and 5% CO2 for 17 hours, after which media was aspirated and cells were lysed in 75 uL RIPA Lysis and Extraction Buffer (Thermo 89901) supplemented with 5 mM MgCl2, Protease and Phosphatase inhibitor cocktail (Thermo 1861281), and Universal Nuclease (Thermo 88700). Plates with RIPA were shaken at 4° C. at 600 rpm for 15 min. After shaking samples, they were collected and spun down at 21,000 g for 15 min at 4° C. Following centrifugation, ˜10 ug of lysate was added to Laemmli Sample Buffer (Bio-Rad 1610747) plus 10% beta-mercaptoethanol, boiled for 15 minutes at 65° C. and loaded onto 12% Mini-PROTEAN TGX™ Precast Protein Gels (Bio-Rad). Protein was transferred to a nitrocellulose membrane (Thermo LC2000) using the iBlot 2 Dry Blotting System (Thermo). After transfer, membranes were washed in 1× TBST (Bioland Scientific LLC TBST0103) 3× for 5 min. Following the wash, blocking buffer (Rockland MB-070) was added for 1 hour at room temperature. Primary antibodies against KRAS (LifeSpan Bio LS-C175665) and actin (Cell Signaling Technology 8457) were added overnight at 4° C. Membranes were then washed again 3× for 5 min in 1× TBST. Secondary antibodies (LI-COR 926-68072 and 926-68073) were added and shaken for 1 hr at room temperature. Membranes were then washed 3× for 5 min in 1×TBST and developed. Membranes were placed on an Odyssey imager (LI-COR).

T2 sequence (P15170 whole entry): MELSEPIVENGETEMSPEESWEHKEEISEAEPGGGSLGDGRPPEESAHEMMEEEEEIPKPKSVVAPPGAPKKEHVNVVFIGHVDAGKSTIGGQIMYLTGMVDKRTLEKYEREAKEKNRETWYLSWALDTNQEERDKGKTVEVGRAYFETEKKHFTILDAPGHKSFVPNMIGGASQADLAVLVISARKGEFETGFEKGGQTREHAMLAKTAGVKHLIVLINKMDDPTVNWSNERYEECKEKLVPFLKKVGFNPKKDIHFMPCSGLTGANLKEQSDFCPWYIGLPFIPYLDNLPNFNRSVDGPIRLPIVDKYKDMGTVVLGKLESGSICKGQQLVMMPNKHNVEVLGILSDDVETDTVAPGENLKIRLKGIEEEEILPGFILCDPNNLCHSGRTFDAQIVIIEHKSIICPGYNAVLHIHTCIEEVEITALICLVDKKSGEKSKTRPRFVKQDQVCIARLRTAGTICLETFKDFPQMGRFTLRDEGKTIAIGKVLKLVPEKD
T2 sequence (Q96SW2 whole entry): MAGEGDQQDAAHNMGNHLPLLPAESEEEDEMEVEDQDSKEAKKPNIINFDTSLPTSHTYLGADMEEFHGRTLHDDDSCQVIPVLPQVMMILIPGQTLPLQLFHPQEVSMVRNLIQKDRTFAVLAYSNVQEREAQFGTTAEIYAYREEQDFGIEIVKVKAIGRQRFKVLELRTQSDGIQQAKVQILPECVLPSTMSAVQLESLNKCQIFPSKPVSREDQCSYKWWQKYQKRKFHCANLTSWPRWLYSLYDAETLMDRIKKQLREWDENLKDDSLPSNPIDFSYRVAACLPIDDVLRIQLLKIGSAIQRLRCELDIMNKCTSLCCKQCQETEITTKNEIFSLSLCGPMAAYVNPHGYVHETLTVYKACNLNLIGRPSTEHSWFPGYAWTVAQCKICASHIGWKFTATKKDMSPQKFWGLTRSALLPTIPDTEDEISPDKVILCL
T2 sequence (Q16531 whole entry partner): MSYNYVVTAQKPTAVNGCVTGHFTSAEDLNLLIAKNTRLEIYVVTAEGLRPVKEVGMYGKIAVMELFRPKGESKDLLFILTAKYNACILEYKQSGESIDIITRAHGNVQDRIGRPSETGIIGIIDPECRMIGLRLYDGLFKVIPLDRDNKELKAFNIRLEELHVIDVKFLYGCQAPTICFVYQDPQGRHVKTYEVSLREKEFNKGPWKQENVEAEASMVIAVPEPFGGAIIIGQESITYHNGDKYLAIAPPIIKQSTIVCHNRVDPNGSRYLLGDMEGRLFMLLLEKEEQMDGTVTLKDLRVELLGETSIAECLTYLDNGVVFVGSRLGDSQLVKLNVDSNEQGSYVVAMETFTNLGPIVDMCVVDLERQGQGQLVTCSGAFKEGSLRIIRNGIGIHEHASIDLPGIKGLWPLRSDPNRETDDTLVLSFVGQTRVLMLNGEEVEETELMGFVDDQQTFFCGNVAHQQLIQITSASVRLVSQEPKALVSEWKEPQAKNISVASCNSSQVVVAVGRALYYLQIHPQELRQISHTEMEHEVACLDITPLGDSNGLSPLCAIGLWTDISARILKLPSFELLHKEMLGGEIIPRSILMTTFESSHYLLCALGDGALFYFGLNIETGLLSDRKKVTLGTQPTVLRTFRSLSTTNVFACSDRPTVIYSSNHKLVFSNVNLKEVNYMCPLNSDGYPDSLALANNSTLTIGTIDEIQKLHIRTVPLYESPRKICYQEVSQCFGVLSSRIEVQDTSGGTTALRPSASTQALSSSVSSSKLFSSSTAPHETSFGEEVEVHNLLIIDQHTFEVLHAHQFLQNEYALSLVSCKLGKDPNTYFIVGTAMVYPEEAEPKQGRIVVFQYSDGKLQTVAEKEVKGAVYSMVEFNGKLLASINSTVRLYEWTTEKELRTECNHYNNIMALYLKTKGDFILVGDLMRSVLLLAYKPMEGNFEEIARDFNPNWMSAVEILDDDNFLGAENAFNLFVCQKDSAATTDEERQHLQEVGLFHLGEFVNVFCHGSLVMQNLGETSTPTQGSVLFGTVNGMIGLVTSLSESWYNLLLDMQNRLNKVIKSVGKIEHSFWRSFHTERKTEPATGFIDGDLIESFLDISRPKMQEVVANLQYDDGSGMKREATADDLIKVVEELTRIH
T3 sequence (P00533 669-1011): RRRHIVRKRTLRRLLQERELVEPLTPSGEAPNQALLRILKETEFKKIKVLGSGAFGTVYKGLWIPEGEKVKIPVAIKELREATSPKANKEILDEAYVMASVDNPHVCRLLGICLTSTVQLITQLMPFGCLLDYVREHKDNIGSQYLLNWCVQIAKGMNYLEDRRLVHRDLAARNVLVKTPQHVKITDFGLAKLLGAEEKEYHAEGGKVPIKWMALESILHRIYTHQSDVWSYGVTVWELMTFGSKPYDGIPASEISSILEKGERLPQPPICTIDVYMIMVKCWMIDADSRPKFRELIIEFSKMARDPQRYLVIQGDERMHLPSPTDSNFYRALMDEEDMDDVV
Chain of KRAS G12C (P01116 1-188 isoform P01116-2 G12C): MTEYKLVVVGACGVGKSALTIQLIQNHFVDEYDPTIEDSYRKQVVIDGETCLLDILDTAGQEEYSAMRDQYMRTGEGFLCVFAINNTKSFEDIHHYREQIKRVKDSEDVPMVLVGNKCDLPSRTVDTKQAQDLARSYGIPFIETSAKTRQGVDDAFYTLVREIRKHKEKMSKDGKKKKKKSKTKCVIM
T1 sequence (P00533 669-1011 T790M/L858R): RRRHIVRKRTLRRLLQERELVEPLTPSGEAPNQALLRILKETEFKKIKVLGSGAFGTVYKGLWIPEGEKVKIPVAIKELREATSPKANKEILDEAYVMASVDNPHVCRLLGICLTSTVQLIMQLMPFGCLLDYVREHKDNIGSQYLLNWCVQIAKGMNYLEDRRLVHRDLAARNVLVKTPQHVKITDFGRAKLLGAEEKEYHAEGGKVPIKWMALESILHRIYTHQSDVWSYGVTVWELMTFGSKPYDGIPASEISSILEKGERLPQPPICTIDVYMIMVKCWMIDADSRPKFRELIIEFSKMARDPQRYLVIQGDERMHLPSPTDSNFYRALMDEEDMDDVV

Take `C=C(COc1cc(Cl)cc(NC(=O)NCc2ccc3c(c2)CN(C2CCC(=O)NC2=O)C3=O)c1)C(=O)Nc1cccc(-c2cccc3cnc(Nc4ccc(N5CCN(CCO)CC5)c(F)c4F)nc23)c1` (stereo not drawn) [Compound I-61]: the dissociation constant Kd in assay [1] fell in the range of 50 to 500 nM; in assay [3], 500 to 2500 nM. The same compound displayed a DC50 in assay [2] of 50 to 500 nM.
Turning to `C=C(COC(=O)N1CCN(c2nc(NCc3nc4cc(C)ccc4[nH]3)n3ncc(Br)c3n2)CC1)C(=O)N1C[C@H](COc2nc(Nc3cnn(C)c3)nc3[nH]cc(Cl)c23)[C@@H](OC)C1` [II-185], the dissociation constant (Kd) in assay [1] and in assay [3] was over 2500 nM throughout.
`C=C(COc1cc(Cl)cc(NC(=O)NCc2ccc3c(c2)CN(C2CCC(=O)NC2=O)C3=O)c1)C(=O)Nc1cccc(Oc2nc(Nc3ccc(N4CCN(C)CC4)cc3)nc3ccsc23)c1` (stereo not drawn) [Compound I-55]: the Kd is 500 to 2500 nM in assay [1] and over 2500 nM in assay [3]. The compound also gave a half-maximal degradation concentration (DC50) in assay [2] of 50 to 500 nM.
With `C=C(CN1CCN(c2nc(NCc3nc4cc(C)ccc4[nH]3)n3ncc(Br)c3n2)CC1)C(=O)Nc1cc(Nc2nccc(-c3cn(C)c4ccccc34)n2)c(OC)cc1N(C)CCN(C)C` [II-188], the Kd in assay [1] and in assay [3] was under 50 nM in each case.
Consider `C=C(CN1CCN(c2nc(NCc3nc4cc(C)ccc4[nH]3)n3ncc(Br)c3n2)CC1)C(=O)Nc1cccc(-c2cccc3cnc(Nc4ccc(N5CCN(CCO)CC5)c(F)c4F)nc23)c1` [II-191], for which the figures for the Kd in assay [1] and in assay [3] were 500 to 2500 nM and over 2500 nM, respectively.
Regarding `C=C(COc1cc(Cl)cc(NC(=O)NCc2ccc3c(c2)CN(C2CCC(=O)NC2=O)C3=O)c1)C(=O)N1C[C@H](COc2nc(Nc3cnn(C)c3)nc3[nH]cc(Cl)c23)[C@@H](OC)C1` (stereo partly drawn) [Compound I-54], the dissociation constant (Kd) in assay [1] and in assay [3] was over 2500 nM in each case. In assay [2], this compound showed a 50% degradation concentration (DC50) of under 50 nM.
As to `C=C(CN(C(=O)NCc1ccc2c(c1)CN(C1CCC(=O)NC1=O)C2=O)c1ccc(C)c(Cl)c1)C(=O)Nc1cc(Nc2ncc(-c3cn(C)c4ccccc34)cn2)c(OC)cc1N(C)CCN(C)C` (stereo not drawn) [Compound I-42], the Kd in assay [1] was 500 to 2500 nM; in assay [3] it was over 2500 nM. Further, the 50% degradation concentration (DC50) in assay [2] is over 2500 nM.
`C=C(COc1cc(NC(=O)NCc2ccc3c(c2)CN(C2CCC(=O)NC2=O)C3=O)cc(OC)c1)C(=O)N1CC2(CC(n3nc(-c4ccc5c(cnn5C)c4)c(-c4c(Cl)c(C)cc5[nH]ncc45)c3C)C2)C1` (stereo not drawn) [Compound I-67] registered a 50% degradation concentration (DC50) in assay [2] of 500 to 2500 nM. Also, in assay [4], the EC50 was in the range of 5000 to 10000 nM.
For `C=C(COc1ccc(Cl)cc1NC(=O)NCc1ccc2c(c1)CN(C1CCC(=O)NC1=O)C2=O)C(=O)N1CCN(c2nc(OC[C@@H]3CCCN3C)nc3c2CCN(c2cccc4cccc(Cl)c24)C3)C[C@@H]1CC#N` (stereo partly drawn) [Compound I-52], the DC50 in assay [2] lay in the range of 500 to 2500 nM. Further, the EC50 in assay [4] lay in the range of 250 to 5000 nM.
In the same order, the values of `C=C(COc1cc(NC(=O)NCc2ccc3c(c2)CN(C2CCC(=O)NC2=O)C3=O)cc(C(F)(F)F)c1)C(=O)N1CCN(c2nc(OC[C@@H]3CCCN3C)nc3c2CCN(c2cccc4cccc(Cl)c24)C3)C[C@@H]1CC#N` (stereo partly drawn) [Compound I-48] are 500 to 2500 nM and 250 to 5000 nM.
On to `C=C(COc1cc(Cl)cc(NC(=O)NCc2ccc3c(c2)CN(C2CCC(=O)NC2=O)C3=O)c1)C(=O)Nc1cc(Nc2nccc(-c3cn(C)c4ccccc34)n2)c(OC)cc1N(C)CCN(C)C` (stereo not drawn) [Compound I-59], for which the Kd in assay [1] and in assay [3] was under 50 nM each time. Further, the half-maximal degradation concentration (DC50) in assay [2] lay within 50 to 500 nM.
Consider `C=C(COc1c(Cl)cccc1NC(=O)NCc1ccc2c(c1)CN(C1CCC(=O)NC1=O)C2=O)C(=O)Nc1cc(Nc2nccc(-c3cn(C)c4ccccc34)n2)c(OC)cc1N(C)CCN(C)C` (stereo not drawn) [Compound I-60], for which the results for the dissociation constant (Kd) in assay [1] and in assay [3] were under 50 nM and 50 to 500 nM, respectively. The DC50 in assay [2] lay in the range of 500 to 2500 nM.
As to `C=C(COc1cc(Cl)cc(NC(=O)NCc2cc3c(cc2F)C(=O)N(C2CCC(=O)NC2=O)C3)c1)C(=O)N1CCN(c2nc(OC[C@@H]3CCCN3C)nc3c2CCN(c2cccc4cccc(Cl)c24)C3)C[C@@H]1CC#N` (stereo partly drawn) [Compound I-64], the DC50 in assay [2] was 500 to 2500 nM. Besides, the EC50 in assay [4] is 250 to 5000 nM.
Take `C=C(COc1cc(NC(=O)NCc2ccc3c(c2)CN(C2CCC(=O)NC2=O)C3=O)ccc1OC)C(=O)N1CCN(c2nc(OC[C@@H]3CCCN3C)nc3c2CCN(c2cccc4cccc(Cl)c24)C3)C[C@@H]1CC#N` (stereo partly drawn) [Compound I-89]: the half-maximal degradation concentration (DC50) in assay [2] was in the range of 500 to 2500 nM. The EC50 in assay [4] lay in the range of 250 to 5000 nM.
Take `C=C(COc1cc(Cl)cc(NC(=O)NCc2ccc3c(c2)CN(C2CCC(=O)NC2=O)C3=O)c1)C(=O)N[C@@H]1CN(c2nc(Nc3cn(C)nc3OC)c3ncn(C)c3n2)C[C@H]1F` (stereo partly drawn) [Compound I-45]: the Kd in assay [1] was under 50 nM; in assay [3], 50 to 500 nM. This compound also returned a half-maximal degradation concentration (DC50) in assay [2] of 500 to 2500 nM.
Regarding `C=C(COc1c(CNC(=O)Nc2ccc(C)c(Cl)c2)ccc2c1CN(C1CCC(=O)NC1=O)C2=O)C(=O)N1CCN(c2nc(OC[C@@H]3CCCN3C)nc3c2CCN(c2cccc4cccc(Cl)c24)C3)C[C@@H]1CC#N` (stereo partly drawn) [Compound I-90], in assay [2], the half-maximal degradation concentration (DC50) was 50 to 500 nM. The EC50 in assay [4] is under 250 nM.
In the same order, the values of `C=C(COc1cc(F)c(F)cc1NC(=O)NCc1ccc2c(c1)CN(C1CCC(=O)NC1=O)C2=O)C(=O)N1CCN(c2nc(OC[C@@H]3CCCN3C)nc3c2CCN(c2cccc4cccc(Cl)c24)C3)C[C@@H]1CC#N` (stereo partly drawn) [Compound I-62] are 500 to 2500 nM and 250 to 5000 nM.
For the compound `C=C(COC(=O)n1c(CNc2nc(N3CCNCC3)nc3c(Br)cnn23)nc2cc(C)ccc21)C(=O)N1C[C@H](COc2nc(Nc3cnn(C)c3)nc3[nH]cc(Cl)c23)[C@@H](OC)C1` [Compound V-4], the Kd in assay [1] and in assay [3] was over 2500 nM in each case.
For `C=C(COc1cc(NC(=O)NCc2ccc3c(c2F)CN(C2CCC(=O)NC2=O)C3=O)cc(C(F)(F)F)c1)C(=O)N1CC2(CC(n3nc(-c4ccc5c(cnn5C)c4)c(-c4c(Cl)c(C)cc5[nH]ncc45)c3C)C2)C1` (stereo not drawn) [Compound I-68], the DC50 in assay [2] is over 2500 nM. The EC50 in assay [4] lay within 250 to 5000 nM.
For `C=C(COc1cc(NC(=O)NCc2ccc3c(c2)CN(C2CCC(=O)NC2=O)C3=O)cc(OC)c1)C(=O)N1CCN(c2nc(OC[C@@H]3CCCN3C)nc3c2CCN(c2cccc4cccc(Cl)c24)C3)C[C@@H]1CC#N` (stereo partly drawn) [Compound I-50], in that order: over 2500 nM and 250 to 5000 nM.
In the case of `C=C(COc1ccc(Cl)cc1NC(=O)NCc1ccc2c(c1)CN(C1CCC(=O)NC1=O)C2=O)C(=O)N1CC2(CC(n3nc(-c4ccc5c(cnn5C)c4)c(-c4c(Cl)c(C)cc5[nH]ncc45)c3C)C2)C1` (stereo not drawn) [Compound I-76], the DC50 in assay [2] was 50 to 500 nM. Also, the EC50 in assay [4] lay in the range of 250 to 5000 nM.
`C=C(COc1cc(-c2ccccn2)ccc1CNc1nc(N[C@H](CC)CO)nc2c1ncn2C(C)C)C(=O)N[C@@H]1CN(c2nc(Nc3cn(C)nc3OC)c3ncn(C)c3n2)C[C@H]1F` [II-183]: the Kd in assay [1] and in assay [3] was 50 to 500 nM throughout.
